The text below walks through data of ChEMBL document CHEMBL3751837, “Synthesis of tetravalent LacNAc-glycoclusters as high-affinity cross-linker against Erythrina cristagalli agglutinin” (Bioorg Med Chem, 2016).

The subject of experiment [1] is Erythrina crista-galli. Briefly: Binding affinity to Erythrina crista-galli agglutinin at 0.625 to 480 uM by quantitative precipitation assay.
For experiment [2], the system named is Erythrina crista-galli. Briefly: Binding affinity to Erythrina crista-galli agglutinin by isothermal titration calorimetry analysis relative to 3-TFAP-beta-LacNAc.
For experiment [3], the system named is Erythrina crista-galli. The experiment can be described thus: Inhibition of Erythrina crista-galli agglutinin-mediated hemagglutination assessed as concentration of LacNAc unit after 40 mins in presence of rabbit erythrocytes relative to LacNAc. The format is cell-based.
The test system of experiment [4] is Erythrina crista-galli. Briefly: Inhibition of Erythrina crista-galli agglutinin-mediated hemagglutination after 40 mins in presence of rabbit erythrocytes. It is filed as cell-based.
A short description of experiment [5]: Binding affinity to Erythrina crista-galli agglutinin by isothermal titration calorimetry analysis. On the technique in general: In ITC the heat of successive injections is recorded.
The test system of experiment [6] is Erythrina crista-galli. Briefly: Inhibition of Erythrina crista-galli agglutinin-mediated hemagglutination assessed as concentration of LacNAc unit after 40 mins in presence of rabbit erythrocytes. It is filed as cell-based.
The subject of experiment [7] is Erythrina crista-galli. Briefly: Binding affinity to Erythrina crista-galli agglutinin assessed as formation of large aggregate at 5 to 10 uM by dynamic light scattering analysis.
The subject of experiment [8] is Erythrina crista-galli. The experiment can be described thus: Binding affinity to Erythrina crista-galli agglutinin assessed as particle size by measuring DLS volume hydrodynamic diameter centered positions at 20 uM by dynamic light scattering analysis (reference value: 8.2 nanometer).
For experiment [9], the system named is Erythrina crista-galli. Briefly: Binding affinity to Erythrina crista-galli agglutinin assessed as particle size by measuring DLS volume hydrodynamic diameter centered positions at 10 uM by dynamic light scattering analysis (reference value: 8.2 nanometer).
Experiment [10] relates to Erythrina crista-galli. The experiment can be described thus: Binding affinity to Erythrina crista-galli agglutinin assessed as particle size by measuring DLS volume hydrodynamic diameter centered positions at 240 uM by dynamic light scattering analysis (reference value: 8.2 nanometer).
Experiment [11] deals with Erythrina crista-galli. Briefly: Binding affinity to Erythrina crista-galli agglutinin at 0.625 to 480 uM by dynamic light scattering analysis.
For experiment [12], the system named is Erythrina crista-galli. Briefly: Binding affinity to Erythrina crista-galli agglutinin assessed as particle size by measuring DLS volume hydrodynamic diameter centered positions at 5 uM by dynamic light scattering analysis (reference value: 8.2 nanometer).
Experiment [13] relates to Erythrina crista-galli. The experiment can be described thus: Binding affinity to Erythrina crista-galli agglutinin assessed as particle size by measuring DLS volume hydrodynamic diameter centered positions at 2.5 uM by dynamic light scattering analysis (reference value: 8.2 nanometer).

The MIC is the lowest concentration that inhibits growth of the organism. The term Kd denotes a measure of binding affinity in units of concentration.

Molecules are shown by their SMILES. Calls of active or inactive are those of the source. The rule behind the calls is not given here.

`CC(=O)N[C@H]1[C@H](OCCCNC(=O)C[C@H](NC(=O)CCCCCCCCC(=O)N[C@@H](CC(=O)NCCCO[C@@H]2O[C@H](CO)[C@@H](O[C@@H]3O[C@H](CO)[C@@H](O)[C@H](O)[C@H]3O)[C@H](O)[C@H]2NC(C)=O)C(=O)NCCCO[C@@H]2O[C@H](CO)[C@@H](O[C@@H]3O[C@H](CO)[C@@H](O)[C@H](O)[C@H]3O)[C@H](O)[C@H]2NC(C)=O)C(=O)NCCCO[C@@H]2O[C@H](CO)[C@@H](O[C@@H]3O[C@H](CO)[C@@H](O)[C@H](O)[C@H]3O)[C@H](O)[C@H]2NC(C)=O)O[C@H](CO)[C@@H](O[C@@H]2O[C@H](CO)[C@@H](O)[C@H](O)[C@H]2O)[C@@H]1O`: the Activity in [1] is 95%. In addition, the Ratio in [2] was 9; in experiment [3], 8. The MIC in [4] is 0.75 µM; in experiment [6], 3 µM. The affinity in experiment [5], expressed as Kd, was 3.9 µM.

In the case of `CC(=O)N[C@H]1[C@H](OCCOCCNC(=O)CN(CCOCCOCCN(CC(=O)NCCOCCO[C@@H]2O[C@H](CO)[C@@H](O[C@@H]3O[C@H](CO)[C@@H](O)[C@H](O)[C@H]3O)[C@H](O)[C@H]2NC(C)=O)CC(=O)NCCOCCO[C@@H]2O[C@H](CO)[C@@H](O[C@@H]3O[C@H](CO)[C@@H](O)[C@H](O)[C@H]3O)[C@H](O)[C@H]2NC(C)=O)CC(=O)NCCOCCO[C@@H]2O[C@H](CO)[C@@H](O[C@@H]3O[C@H](CO)[C@@H](O)[C@H](O)[C@H]3O)[C@H](O)[C@H]2NC(C)=O)O[C@H](CO)[C@@H](O[C@@H]2O[C@H](CO)[C@@H](O)[C@H](O)[C@H]2O)[C@@H]1O`, in experiment [1], the outcome was Active. In addition, the Ratio in experiment [2] was 4.9; in [3], 2. Besides, the minimum inhibitory concentration (MIC) in experiment [4] was found to be 3 µM; in experiment [6] it was 12 µM. Further, the Kd in experiment [5] amounted to 7.2 µM.

Turning to `CC(=O)N[C@H]1[C@H](OCCCCCNC(=O)CCCCCNC(=O)CCCSSCCCC(=O)NCCCCCC(=O)NCCCCCO[C@@H]2O[C@H](CO)[C@@H](O[C@@H]3O[C@H](CO)[C@@H](O)[C@H](O)[C@H]3O)[C@H](O)[C@H]2NC(C)=O)O[C@H](CO)[C@@H](O[C@@H]2O[C@H](CO)[C@@H](O)[C@H](O)[C@H]2O)[C@@H]1O`, in experiment [1], the Activity was determined as 41%. Moreover, the Ratio in experiment [2] turned out to be 2.3; in experiment [3] it was 8. For the same compound, the minimum inhibitory concentration (MIC) in [4] stood at 1.5 µM; in [6], 3 µM. Binding in experiment [5] was characterised by a dissociation constant (Kd) of 15.6 µM.

Regarding `CC(=O)N[C@H]1C(O)O[C@H](CO)[C@@H](O[C@@H]2O[C@H](CO)[C@@H](O)[C@H](O)[C@H]2O)[C@@H]1O` (some centres not stated), the minimum inhibitory concentration (MIC) in experiment [4] and in experiment [6] was 24 µM throughout.

As for `CC(=O)N[C@H]1[C@H](OCCOCCNC(=O)CCCCCNC(=O)CN(CCOCCOCCN(CC(=O)NCCCCCC(=O)NCCOCCO[C@@H]2O[C@H](CO)[C@@H](O[C@@H]3O[C@H](CO)[C@@H](O)[C@H](O)[C@H]3O)[C@H](O)[C@H]2NC(C)=O)CC(=O)NCCCCCC(=O)NCCOCCO[C@@H]2O[C@H](CO)[C@@H](O[C@@H]3O[C@H](CO)[C@@H](O)[C@H](O)[C@H]3O)[C@H](O)[C@H]2NC(C)=O)CC(=O)NCCCCCC(=O)NCCOCCO[C@@H]2O[C@H](CO)[C@@H](O[C@@H]3O[C@H](CO)[C@@H](O)[C@H](O)[C@H]3O)[C@H](O)[C@H]2NC(C)=O)O[C@H](CO)[C@@H](O[C@@H]2O[C@H](CO)[C@@H](O)[C@H](O)[C@H]2O)[C@@H]1O`, the result in [1] was Active. Also, the Ratio in experiment [2] was 5.9; in experiment [3], 4. Besides, the values for the MIC in experiment [4] and in [6] were 1.5 µM and 6 µM, respectively. Also, in [5], the equilibrium dissociation constant (Kd) came to 6 µM.

Turning to `CC(=O)N[C@H]1[C@H](OCCCCCNC(=O)CCCSSCCCC(=O)NCCCCCO[C@@H]2O[C@H](CO)[C@@H](O[C@@H]3O[C@H](CO)[C@@H](O)[C@H](O)[C@H]3O)[C@H](O)[C@H]2NC(C)=O)O[C@H](CO)[C@@H](O[C@@H]2O[C@H](CO)[C@@H](O)[C@H](O)[C@H]2O)[C@@H]1O`, the Activity in experiment [1] worked out at 20%. Moreover, the Ratio in experiment [2] was determined as 2; in [3], 8. For the same compound, the minimal inhibitory concentration (MIC) in [4] was 1.5 µM; in experiment [6], 3 µM. Also, the dissociation constant (Kd) in experiment [5] came to 17.5 µM.

With `CC(=O)N[C@H]1[C@H](OCCCNC(=O)C[C@H](NC(=O)CCCCCCCCCCCCCCCCC(=O)N[C@@H](CC(=O)NCCCO[C@@H]2O[C@H](CO)[C@@H](O[C@@H]3O[C@H](CO)[C@@H](O)[C@H](O)[C@H]3O)[C@H](O)[C@H]2NC(C)=O)C(=O)NCCCO[C@@H]2O[C@H](CO)[C@@H](O[C@@H]3O[C@H](CO)[C@@H](O)[C@H](O)[C@H]3O)[C@H](O)[C@H]2NC(C)=O)C(=O)NCCCO[C@@H]2O[C@H](CO)[C@@H](O[C@@H]3O[C@H](CO)[C@@H](O)[C@H](O)[C@H]3O)[C@H](O)[C@H]2NC(C)=O)O[C@H](CO)[C@@H](O[C@@H]2O[C@H](CO)[C@@H](O)[C@H](O)[C@H]2O)[C@@H]1O`, the result in experiment [7] and in experiment [11] was Active. For the same compound, the Activity is 2030 nm in experiment [8]; 95% in experiment [1]; 1510 nm in experiment [9]; 788 nm in experiment [10]; 1110 nm in experiment [12]. The Ratio in experiment [2] stood at 14.1; in experiment [3], 32. The values for the MIC in experiment [4] and in experiment [6] were 0.19 µM and 0.76 µM, respectively. The Kd in experiment [5] is 2.5 µM.

Regarding `CC(=O)N[C@H]1[C@H](OCCCNC(=O)C(F)(F)F)O[C@H](CO)[C@@H](O[C@@H]2O[C@H](CO)[C@@H](O)[C@H](O)[C@H]2O)[C@@H]1O`, the outcome in [1] was inactive. This compound also gave a Kd in experiment [5] of 35.2 µM.

As for `CC(=O)N[C@H]1[C@H](OCCCNC(=O)C[C@H](NC(=O)CCCCCNC(=O)CCCCCCCCCCC(=O)NCCCCCC(=O)N[C@@H](CC(=O)NCCCO[C@@H]2O[C@H](CO)[C@@H](O[C@@H]3O[C@H](CO)[C@@H](O)[C@H](O)[C@H]3O)[C@H](O)[C@H]2NC(C)=O)C(=O)NCCCO[C@@H]2O[C@H](CO)[C@@H](O[C@@H]3O[C@H](CO)[C@@H](O)[C@H](O)[C@H]3O)[C@H](O)[C@H]2NC(C)=O)C(=O)NCCCO[C@@H]2O[C@H](CO)[C@@H](O[C@@H]3O[C@H](CO)[C@@H](O)[C@H](O)[C@H]3O)[C@H](O)[C@H]2NC(C)=O)O[C@H](CO)[C@@H](O[C@@H]2O[C@H](CO)[C@@H](O)[C@H](O)[C@H]2O)[C@@H]1O`, the Activity in [8] stood at 2280 nm; in experiment [1], 95%; in experiment [13] it was 1880 nm; in experiment [12], 1750 nm. The Ratio stood at 15.3 in experiment [2] and 43 in [3]. Further, the results for the minimal inhibitory concentration (MIC) in experiment [4] and in experiment [6] were 0.14 µM and 0.56 µM, respectively. The dissociation constant (Kd) in experiment [5] amounted to 2.3 µM. Besides, in experiment [11], the result was Active.

Turning to `CC(=O)N[C@H]1[C@H](OCCCNC(=O)C[C@H](NC(=O)CCCCC(=O)N[C@@H](CC(=O)NCCCO[C@@H]2O[C@H](CO)[C@@H](O[C@@H]3O[C@H](CO)[C@@H](O)[C@H](O)[C@H]3O)[C@H](O)[C@H]2NC(C)=O)C(=O)NCCCO[C@@H]2O[C@H](CO)[C@@H](O[C@@H]3O[C@H](CO)[C@@H](O)[C@H](O)[C@H]3O)[C@H](O)[C@H]2NC(C)=O)C(=O)NCCCO[C@@H]2O[C@H](CO)[C@@H](O[C@@H]3O[C@H](CO)[C@@H](O)[C@H](O)[C@H]3O)[C@H](O)[C@H]2NC(C)=O)O[C@H](CO)[C@@H](O[C@@H]2O[C@H](CO)[C@@H](O)[C@H](O)[C@H]2O)[C@@H]1O`, in experiment [1], the Activity turned out to be 95%. In addition, the Ratio in experiment [2] came to 4.9; in experiment [3] it was 4. Further, the MIC in experiment [4] stood at 1.5 µM; in [6], 6 µM. Moreover, binding in experiment [5] was characterised by a dissociation constant (Kd) of 7.2 µM.
